Like-named read-outs stand apart in the source and are kept apart here.
Experiments:
Pyricularia oryzae = assay type: cell-based; conditions: PO, 48 hours
Alternaria solani = assay: Mycelial growth test; assay type: cell-based; conditions: Alternaria solani, 72 h, AS, read-out: Percent Fungus Growth Inhibition
Phytophthora infestans = assay: whole plant or invertebrate; assay type: in vivo; conditions: Phytophthora infestans, in Solanum lycopersicum, foliar, read-out: Percent Disease Control, foliar, tomato late blight, 150 ppm, protective

Compound	Spore Germination Rating (Pyricularia oryzae; 1.0 ppm)	Spore Germination Rating (Pyricularia oryzae; 2.5 ppm)	Spore Germination Rating (Pyricularia oryzae; 10 ppm)	Spore Germination Rating (Pyricularia oryzae; 40 ppm)	inhibition at 5 ppm (Alternaria solani)	inhibition at 10 ppm (Alternaria solani)	inhibition at 20 ppm (Alternaria solani)	inhibition at 40 ppm (Alternaria solani)	pest or weed control at 150 ppm (Phytophthora infestans)
O=C(O)Cc1ccccc1Oc1nsnc(Cl)c1=O [Compound 45, 3-(2-carboxymethylphenoxy)-5-chloro-4H--1,2,6-thiadiazin-4-one]	4 (80-100)	4 (80-100)	4 (80-100)	1 (10-40)	4%	0%	25%	54%	0%
N#CCc1ccc(Oc2nsnc(Cl)c2=O)cc1 [Compound 46, 3-chloro-5-[(4-cyanomethyl)-phenoxy]4H--1,2,6-thiadiazin-4-one]	0 (0-10)	0 (0-10)	0 (0-10)	0 (0-10)	71%	81%	100%	100%	75%
CC(=O)c1ccc(Oc2nsnc(Cl)c2=O)cc1 [Compound 47, 3-(4-acetylphenoxy)-5-chloro-4H--1,2,6-thiadiazin-4-one]	1 (10-40)	0 (0-10)	0 (0-10)	0 (0-10)	92%	92%	92%	88%	95%
CC(=O)c1cccc(Oc2nsnc(Cl)c2=O)c1 [Compound 48, 3-(3-acetylphenoxy)-5-chloro-4H--1,2,6-thiadiazin-4-one]	3 (60-80)	1 (10-40)	0 (0-10)	0 (0-10)	88%	92%	100%	100%	98%
CC(=O)c1ccccc1Oc1nsnc(Cl)c1=O [Compound 49, 3-(2-acetylphenoxy)-5-chloro-4H--1,2,6-thiadiazin-4-one]	2 (40-60)	1 (10-40)	0 (0-10)	0 (0-10)	100%	100%	100%	100%	90%
O=C(O)c1ccc(Oc2nsnc(Cl)c2=O)cc1 [Compound 50, 3-(4-carboxyphenoxy)-5-chloro-4H--1,2,6-thiadiazin-4-one]	4 (80-100)	4 (80-100)	4 (80-100)	0 (0-10)	33%	21%	54%	63%	0%
COc1ccc(Cl)c(Oc2nsnc(Cl)c2=O)c1 [Compound 51, 3-chloro-5-[(2-chloro-5-methoxy)phenoxy]-4H--1,2,6-thiadiazin-4-one]	3 (60-80)	0 (0-10)	0 (0-10)	0 (0-10)	52%	75%	81%	90%	90%
O=c1c(Cl)nsnc1Oc1ccc([N+](=O)[O-])cc1Cl [Compound 53, 3-chloro-5-(2-chloro-4-nitrophenoxy)-4H--1,2,6-thiadiazin-4-one]	2 (40-60)	0 (0-10)	0 (0-10)	0 (0-10)	38%	42%	67%	100%	98%
Cc1cc(Oc2nsnc(Cl)c2=O)ccc1Cl [Compound 54, 3-chloro-5-(4-chloro-3-methylphenoxy)-4H--1,2,6-thiadiazin-4-one]	0 (0-10)	0 (0-10)	0 (0-10)	0 (0-10)	70%	100%	100%	100%	0%
Cc1cc(Cl)ccc1Oc1nsnc(Cl)c1=O [Compound 55, 3-chloro-5-(4-chloro-2-methylphenoxy)-4H--1,2,6-thiadiazin-4-one]	1 (10-40)	0 (0-10)	0 (0-10)	0 (0-10)	100%	100%	100%	100%	90%
Cc1ccc(Cl)c(Oc2nsnc(Cl)c2=O)c1 [Compound 56, 3-chloro-5-[(2-chloro-5-methyl)phenoxy]-4H--1,2,6-thiadiazin-4-one]	0 (0-10)	0 (0-10)	0 (0-10)	0 (0-10)	52%	71%	81%	100%	95%
Cc1ccc(Oc2nsnc(Cl)c2=O)c(Br)c1 [Compound 57, 3-[(2-bromo-4-methyl)-phenoxy]-5-chloro-4H--1,2,6-thiadiazin-4-one]	0 (0-10)	2 (40-60)	0 (0-10)	0 (0-10)	71%	90%	90%	90%	0%
Cc1cc(Cl)c(Oc2nsnc(Cl)c2=O)cc1C [Compound 58, 3-chloro-5-[(2-chloro-4,5-dimethyl)phenoxy]-4H--1,2,6-thiadiazin-4-one]	4 (80-100)	0 (0-10)	0 (0-10)	0 (0-10)	48%	48%	43%	43%	0%
Cc1cc(Oc2nsnc(Cl)c2=O)cc(C)c1Cl [Compound 59, 3-chloro-5-[(4-chloro-3,5-dimethyl)phenoxy]-4H--1,2,6-thiadiazin-4-one]	0 (0-10)	0 (0-10)	0 (0-10)	0 (0-10)	48%	52%	57%	57%	0%
Cc1cc(Oc2nsnc(Cl)c2=O)cc(C)c1Br [Compound 60, 3-[(4-bromo-3,5-dimethyl)-phenoxy]-5-chloro-4H--1,2,6-thiadiazin-4-one]	0 (0-10)	0 (0-10)	0 (0-10)	0 (0-10)	33%	43%	52%	52%	0%

Reference: patent US4450269A, “Mono-5-substituted-3-chloro-4H-1,2,6-thiadiazin-4-one antifungal agents” (FMC Corporation, priority 1980, dated 1984)
